Measurements reported in patent publication US10226451B2, “Substituted bicyclic compounds as bromodomain inhibitors” (ZENITH EPIGENETICS LTD, priority 2013, dated 2019).

Experiments:
[1] = tested on: hIL-17 mRNA in human peripheral blood mononuclear cells; assay: Inhibition of hIL-17 mRNA transcription in OKT3-stimulated PBMC; format: cell-based; details: OKT3 antibody, 6 h, read-out: IL-17 activity
In short: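 Human PBMC in medium with 20 ng/ml IL-2 were pretreated 1 h at 37 °C with test compound or 0.1% DMSO, then stimulated with OKT3 (10 ug/ml 10× stock) for 6 h. IL-17 mRNA was measured by one-step TaqMan qRT-PCR, normalized to cyclophilin, and expressed as fold change versus control.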

Human AML MV-4-11 cells = assay: Inhibition of cell proliferation in MV4-11 cells (CellTiter Aqueous One); format: cell-based; details: 72 h
In short: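 MV4-11 cells at 5×10^4/well in IMDM with 10% FBS were exposed to increasing compound concentrations or 0.1% DMSO, in triplicate, for 72 h at 37 °C. A further 3-4 h with CellTiter Aqueous One reagent followed. A490, blank-corrected and expressed relative to DMSO, gave IC50.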

MM1.s cells xenograft = assay: In vivo efficacy, multiple myeloma xenograft model using MM1.s cells; design: species or system mouse; details: SCID-Beige mice, oral dosing, tumor growth inhibition
Procedure: MM1.s cells (ATCC) were grown under standard cell culture conditions and SCID-Beige strain of female mice age 6-7 weeks were injected with 10×10^6 cells/animal in 100 μL PBS+100 μL Matrigel in the lower left abdominal flank. By approximately day 21 after MM1.s cells injection, mice were randomized based on tumor volume (L×W×H)/2) of average ˜120 mm^3. Mice were dosed orally with compound at 25 to 90 mg/kg b.i.d and or q.d in EA006 formulation at 10 mL/kg body weight dose volume. Tumor measurements were taken with electronic micro calipers and body weights measured on alternate days beginning from dosing period. The average tumor volumes, percent Tumor Growth Inhibition (TGI) and % change in body weights were compared relative to Vehicle control animals. The means, statistical analysis and the comparison between groups were calculated using Student's t-test in Excel.

[2] = tested on: hApoA-I mRNA in Huh7 cells; assay: Up-regulation of hApoA-1 mRNA transcription in Huh7 cells; format: cell-based, Human; details: EC170, Huh7 cells, 48 h
Procedure: In this example, hApoA-I mRNA in tissue culture cells was quantitated to measure the transcriptional up-regulation of hApoA-I when treated with a compound of the present disclosure.
Huh7 cells (2.5×10^5 per well) were plated in a 96-well plate using 100 μL DMEM per well, (Gibco DMEM supplemented with penicillin/streptomycin and 10% FBS), 72 h before the addition of the compound. The cells are treated with increasing concentrations of the compound or DMSO (0.1%), and incubated at 37° C., 5% CO2 for 48 h. Spent media was removed from the Huh-7 cells and placed on ice for immediate use with the “LDH cytotoxicity assay Kit II” from Abcam. The cells remaining in the plate were rinsed with 100 μL PBS. Cells were harvested using the mRNA Catcher PLUS kit according to manufacturer's instructions. The eluted mRNA was then used in a one-step quantitative real-time PCR reaction, using components of the RNA UltraSense™ One-Step Kit (Life Technologies) together with Applied Biosystems TaqMan® primer-probes for hApoA-I and Cyclophilin. Real-time PCR plates were run on a ViiA™7 real time PCR machine (Applied Biosystems), data was analyzed, normalizing the Ct values for hApoA-1 to an internal control, prior to determining the fold induction of each unknown sample, relative to the control.

[3] = tested on: Bcl2 and c-myc gene expression in MV4-11 and MM1.s tumors; assay: Evaluation of target engagement in xenograft tumors (PD biomarkers); format: in vivo, mouse; details: oral dose, tumors harvested 3, 6, 12, 24 hrs post dose
Procedure: MV4-11 and MM1.s cells (ATCC) were grown under standard cell culture conditions and (NCr) nu/nu fisol strain of female mice age 6-7 weeks were injected with 5×10^6 cells/animal in 100 μL PBS+100 μL Matrigel in the lower left abdominal flank. By approximately day 28 after MV4-11 and MM1.s cells injection, mice were randomized based on tumor volume (L×W×H)/2) of average ˜500 mm^3. Mice were dosed orally with compound in EA006 formulation at 10 mL/kg body weight dose volume and tumors harvested 3, 6, 12, 24 hrs post dose for Bcl2 and c-myc gene expression analysis as PD biomarkers.

Cc1noc(C)c1-c1cc(-c2c(C)nn(C)c2C)c2c(c1)[nH]c(=O)n2C [Example Compound 9, 5-(3,5-dimethylisoxazol-4-yl)-1-methyl-7-(1,3,5-trimethyl-1H-pyrazol-4-yl)-1H-benzo[d]imidazol-2(3H)-one]
IC50 [1]: ≤ 300 nM
IC50 (Human AML MV-4-11 cells): ≤ 300 nM
In vivo activity (MM1.s cells xenograft): Active
ApoA-1 activity [2]: +++ (EC170 value less than or equal to 0.3 μM were deemed to be highly active (+++))
In vivo activity [3]: Active
